# Measured values as given in patent US20110217290A1, “TREATMENT AND/OR PREVENTION OF PEANUT INDUCED ANAPHYLAXIS” (priority 2009, published 2011).
# Key:
# peanut-sensitized mice [1] = assay: Mathematical model grading severity of the anaphylactic response (AU39° C., AU35° C., events under 35° C.); type: in vivo, C57BL/6 mice
# Description: In an effort to more comprehensively grade the anaphylactic response, three measures of severitywere utilized: global, moderate and life-threatening severity. To facilitate the assessment of severity, a mathematical model that describes the overall behavior of the anaphylactic response for each experimental group was developed. Using mean experimental data for untreated mice, an equation was derived that represents the pattern in core temperature up to 120 minutes following challenge. The same equation was then fit to the other experimental group (mice treated with PAF-R antagonist) to derive a numerical coefficient that accurately depicts the respective response. (FIG. 3 E). These equations were subsequently used to generate modeled data. Actual and modeled data were validated through linear regression, yielding R^2 values of greater than 0.99 for both untreated and treated groups (FIG. 3 F). Thus, the response for each experimental group can be expressed with a mathematical representation that can be used to assess the overall degree of the anaphylactic response. Global severity was defined as the area of the response under 39° C. (AU39° C.), while life-threatening severity was depicted as the area of the response under 35° C. (AU35° C.; FIG. 3 F). Moderate severity was deemed as the difference between global and life-threatening severity (AU39° C.-AU35° C.; FIG. 3 F). Given that these areas (i.e. AU39° C. and AU35° C.) were calculated using mean temperatures at each time point, they describe the overall trend of the response. […] In other words, the AU35° C. is not representative of those mice that experienced life-threatening anaphylaxis exclusively but rather encompasses the response of the entire population. Therefore, the concept of life-threatening severity was modified to consider only the number of mice whose temperature fell below 35° C. at any time point (expressed as ‘events under 35° C.’). In addition, the duration of life-threatening conditions was determined by calculating the time at which each response was below 35° C. (FIG. 3 F).
# The potential adjuvant effect of antihistamines in the treatment of PIA was assessed. Peanut-sensitized mice were treated with a PAF-R antagonist along with H1 and H2 receptor antagonists and monitored them for 120 min following challenge. FIG. 4 illustrates that concomitant treatment with PAF-R antagonist and anti-histamines prevents life-threatening and prolonged peanut-induced anaphylactic reactions. […] One week after the last sensitization, separate groups of mice were treated as follows: (A) appropriate drug vehicle (B) PAF-R antagonist [50 mg/Kg], ABT-491] orally 1 h prior to CPE challenge. (C) histamine receptor antagonists mepyramine [3 mg/kg] and cimetadine [10 mg/Kg] (for H1 receptor and H2 receptor, respectively) i.v. 30 min prior to CPE challenge (D) The last group of mice was administered the treatments described in B and C concurrently. Pooled data from two independent experiments are shown (n=6/experiment). *, P<0.05 relative to time 0. ns, not significant. […] (E) The accuracy of the model was quantified using linear regression. Using the equation from the model, global severity was defined as the area between the response and 39 (area under 39° C. (AU39° C.)) while life-threatening severity was defined as the area of the response under 35° C. (AU35° C.). Since these areas were calculated using mean temperatures at each time point, they describe the overall trend of the response. […]
# [2] = test system: cysteinyl leukotrienes (CysLTC); assay: Plasma cysteinyl leukotrienes after peanut challenge (enzyme immunoassay); type: in vivo, C57BL/6 mice
# Description: Blood from control and sensitized mice was collected in K2-EDTA containing tubes at the indicated time points following i.p challenge with CPE and plasma was analyzed for (E) histamine and (F) CysLTC levels. Histamine and leukotriene levels were determined in plasma at different time points following challenge using enzyme immunoassay kits (Beckman Coulter Canada, Inc, Mississauga, and Cedarlane Laboratories Ltd, Hornby, Canada, respectively) according to the manufacture's specifications. Plasma was obtained using K2-EDTA containing tubes (BD Biosciences, Mississauga, ON, Canada). Graphs show mean values±SEM from three to five independent experiments; n=8-12 mice per group. * P<0.05 relative to control. The kinetics of mediator production is distinct. […] These findings indicate that oral sensitization with peanut results in a significant increase in the number of peritoneal mast cells and FcεRI surface expression likely contributing to the massive release of vasoactive mediators following challenge with peanut.
# (for H1 receptor and H2 receptor, respectively) i.v. 30 minutes prior to CPE challenge. […] Histamine (C) and (G) and leukotriene (D) and (H) levels from each of the experimental groups above were analyzed in plasma 40 min following CPE challenge. […]
# albumin in the PL fluid = assay: Vascular leakage: albumin content in PL fluid after peanut challenge; type: in vivo, C57BL/6 mice; conditions: PAF-R antagonist; following peanut challenge
# Source text: During the course of a systemic anaphylactic reaction vasodilatation and hypotension are often associated with excessive vascular permeability and fluid extravasations.
# peanut-sensitized mice [3] = test system: peanut-sensitized mice
Structure (SMILES),"decrease in global severity (AU39° C.) (peanut-sensitized mice [1]; PAF-R antagonist 50 mg/Kg orally vs. untreated, up to 120 min following challenge, FIG. 3 F)","less time under life-threatening conditions (below 35° C.) compared to untreated mice (peanut-sensitized mice [1]; PAF-R antagonist 50 mg/Kg orally, FIG. 3 F)","number of 'events under 35° C.' (peanut-sensitized mice [1]; PAF-R antagonist 50 mg/Kg orally, untreated 133, FIG. 3 F)","number of 'events under 35° C.' (peanut-sensitized mice [1]; treatments as, 120 min, untreated 75, FIG. 4 E)","effect on moderate severity (AU39° C.-AU35° C.) (peanut-sensitized mice [1]; treatments as, up to 120 min, FIG. 4 E)","levels of Cysts in plasma following challenge with peanut ([2]; PAF-R antagonist treated, untreated 570.2±237.3, mean±SEM)",decrease in the content of albumin in the PL fluid of treated mice compared to untreated mice (vascular leakage) (albumin in the PL fluid),"development of seizures (convulsions) (peanut-sensitized mice [3]; ABT-491 50 mg/Kg orally 1 h prior to challenge, 15% of untreated mice developed convulsions)","recovery from the anaphylactic reaction (peanut-sensitized mice [3]; ABT-491 50 mg/Kg orally 1 h prior to challenge, monitored 120 min, FIGS. 3 C and D)","treated mice that developed either no or mild anaphylactic reactions (peanut-sensitized mice [3]; ABT-491 50 mg/Kg orally 1 h prior to challenge, no: score 0, 37.5-40° C., mild: score ≦2, 34.5-37.5° C.)","mice that reached recovery temperature (37° C.) within 120 min following challenge (peanut-sensitized mice [3]; ABT-491 50 mg/Kg orally 1 h prior to challenge, untreated 43%, FIG. 3 C)","mice that dropped their core temperature by more than 4° C. (peanut-sensitized mice [3]; ABT-491 50 mg/Kg orally 1 h prior to challenge, untreated 87%)","mice that died within 48 h following challenge (peanut-sensitized mice [3]; ABT-491 50 mg/Kg orally 1 h prior to challenge, untreated approximately 20%)","mice that experienced severe hypothermia 120 min following challenge (peanut-sensitized mice [3]; ABT-491 50 mg/Kg orally 1 h prior to challenge, untreated approximately 30%)","leukotrienes in plasma from treated mice ([2]; Zileuton 50 mg/Kg oral, 12 h and 1 h prior to challenge, plasma 40 min following CPE challenge, FIG. 2 D)","impact on the extent and/or kinetics of peanut-induced anaphylactic reactions (peanut-sensitized mice [3]; Zileuton 50 mg/Kg oral gavage twice, 12 h and 1 h prior to i.p. CPE challenge, 40 min, FIGS. 2 A and B)"
C#Cc1cccc2c1c(C(=O)c1ccc(Cn3c(C)nc4cnccc43)c(F)c1)cn2C(=O)N(C)C [ABT-491],approximately 50%,approximately 75%,41,16,partial effect,187.3 ± 96.9 pg/mL,57%,no seizures were observed,significantly accelerated,~50%,83%,48%,none,9%,,
CC(c1cc2ccccc2s1)N(O)C(N)=O (stereo not shown) [Zileuton],,,,,,,,,,,,,,,nearly undetected,did not have an impact
